Patent US20230128402A1 (The Trustees of Princeton University, priority 2020, published 2023)

Experiments:
[1] = molecular target: T1, ALDH1a3 (Homo sapiens, UniProt P47895); experiment: ALDEFLUOR assay in SUM159-M1a-Aldh1a3 cells; type: cell-based; design: lentiviral vectors containing either the vector backbone or full-length human Aldh1a3; expressed in transfected cells; host or cells: SUM159-M1a human breast cancer cells, lentiviral pLex vector; conditions: for Inhi-bitory Activity at 100 nM (%) / Percent of Cells Positive for ALDEFLUOR ™ at 100 nM: SUM159-M1a-Aldh1a3 cells, compound at 100 nM
T1 sequence (P47895 1-512): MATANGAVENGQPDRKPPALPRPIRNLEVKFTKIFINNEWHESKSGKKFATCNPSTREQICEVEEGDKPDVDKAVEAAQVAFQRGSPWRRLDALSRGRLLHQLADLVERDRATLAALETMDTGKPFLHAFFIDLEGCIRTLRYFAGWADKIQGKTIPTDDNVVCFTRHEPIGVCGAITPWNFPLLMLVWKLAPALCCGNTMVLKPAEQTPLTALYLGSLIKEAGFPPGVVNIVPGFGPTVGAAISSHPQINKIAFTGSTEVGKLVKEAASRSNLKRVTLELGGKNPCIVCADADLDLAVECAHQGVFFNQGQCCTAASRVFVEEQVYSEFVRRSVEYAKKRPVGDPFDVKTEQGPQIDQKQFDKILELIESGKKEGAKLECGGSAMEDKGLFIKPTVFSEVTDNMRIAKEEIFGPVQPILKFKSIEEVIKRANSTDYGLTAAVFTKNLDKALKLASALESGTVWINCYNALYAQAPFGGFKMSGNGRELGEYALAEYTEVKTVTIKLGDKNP
Protocol: (§1) Cells were counted, centrifuged and resuspended at 1,000,000 cells/mL in ALDEFLUOR™ buffer (Stemcell Technologies). ALDEFLUOR™ substrate (Stemcell Technologies, 1:200) and test compound or 1 mM DEAB were added to cell suspension and incubated at 37° C. for 45 minutes with vortexing every 15 minutes. Cells were centrifuged and resuspended in ALDEFLUOR™ buffer with DAPI at 5 μg/mL. Samples were analyzed with the BD LSR2 flow cytometry platform. Gating was performed using DEAB as a negative control.
Gating for background fluorescence was performed using 1 millimolar DEAB as a negative control.
The [inh-min]threshold was set at the lower bound of two standard deviations of control samples, while the IC50 threshold was set at 50% of the average of control samples.
An ALDEFLUOR™ assay was also used to assess the relative activity of several compounds described herein against SUM159-M1a-Aldh1a3 cells.

[2] = molecular target: T1, ALDH1a3; experiment: Aldh1a3 enzyme inhibition assay, recombinant hALDH1a3; type: biochemical; design: made in house; host or cells: E. coli BL21-DE3, pET-Aldh1a3; conditions: resorufin fluorescence, 20° C.
Excerpt: (§2) Recombinant enzyme and inhibitor added immediately before assay. Reaction rate measured by resorufin fluorescence.

[3] = molecular target: T2, mALDH1a3 (Mus musculus, UniProt Q9JHW9); experiment: Aldh1a3 enzyme inhibition assay, recombinant mALDH1a3; type: biochemical; conditions: resorufin fluorescence, 20° C.
T2 construct: made in house; host or cells: E. coli BL21-DE3, pET-Aldh1a3
T2 sequence (Q9JHW9 1-512): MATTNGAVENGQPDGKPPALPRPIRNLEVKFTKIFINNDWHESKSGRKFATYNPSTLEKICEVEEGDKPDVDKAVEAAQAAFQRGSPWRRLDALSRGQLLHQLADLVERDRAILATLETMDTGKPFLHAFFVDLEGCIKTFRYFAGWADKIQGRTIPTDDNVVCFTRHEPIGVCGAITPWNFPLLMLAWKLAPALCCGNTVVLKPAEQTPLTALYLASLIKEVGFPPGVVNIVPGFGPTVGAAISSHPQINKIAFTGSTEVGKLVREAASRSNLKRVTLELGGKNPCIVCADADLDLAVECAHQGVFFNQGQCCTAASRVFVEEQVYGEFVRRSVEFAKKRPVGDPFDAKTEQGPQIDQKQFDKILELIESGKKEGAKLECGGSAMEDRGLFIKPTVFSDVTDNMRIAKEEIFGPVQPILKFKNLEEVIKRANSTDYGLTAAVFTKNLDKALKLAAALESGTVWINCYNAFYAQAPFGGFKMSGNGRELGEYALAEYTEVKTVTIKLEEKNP
Excerpt: as §2

[4] = tested on: ALDH isoforms 1a1, 1a2, 1a3 and 3a1; type: cell-based, human
Protocol: The coding sequences of Aldh1a1, Aldh1a2, Aldh1a3 and Aldh3a1 were cloned from cDNA made from pooled human reference RNA samples. Cloned sequences flanked by Age1 and Xho1 restriction sites were inserted into the pLex lentiviral plasmid. Clones were sequenced and compared against NCBI expressed sequence tags ([…]) for accuracy. […]. Viruses were collected and filtered at 0.45 um, then cells were transduced using polybrene (8 μg/mL) for 12 hours, followed by culture with 1 μg/mL puromycin for the duration of experiments. All viral transduction and selection was performed on a cell population-wide basis.
as §1
ALDH isoforms 1a1, 1a2, 1a3 and 3a1 were expressed in MCF7 or SUM159 cells, which were subsequently used in an ALDEFLUOR™ assay.

relative potency, ALDEFLUOR activity ([1]; 10 nM, FIG. 6C)	IC50 [2] [µM]	IC50 [3] [µM]	Inhi-bitory Activity at 100 nM (%) [1] [%]	Percent of Cells Positive for ALDEFLUOR ™ at 100 nM [1] [%]	Molecule	inhibition of ALDH1a3 activity (percentage of ALDEFLUOR-positive cells) ([1]; 100 nM, FIG. 6A)	ALDH isoform specificity, ALDEFLUOR-positive cells [4]
	> 5	> 5	29	55	Cc1cc(C(=O)Nc2cc3c(cc2F)NC(=O)CC3)ccn1 [Compound 16]		
	< 0.1	0.1 to 0.25	100	0.03	2-ethyl-N-(7-fluoro-2-oxo-3,4-dihydro-1H-quinolin-6-yl)benzamide [Compound 4]		specifically inhibits ALDH1a3 at concentrations below 10 μM
	> 5	> 5	8	70	O=C1CCc2cc(NC(=O)c3ccncc3)c(F)cc2N1 [Compound 2]		
	> 5	> 5	0.60	76	Cc1ccc(C(=O)Nc2ccc3c(c2)CCC(=O)N3)cc1C [Compound 11]		

Second part, the molecule before the results:

Molecule	relative potency, ALDEFLUOR activity ([1]; 10 nM, FIG. 6C)	IC50 [2] [µM]	IC50 [3] [µM]	Inhi-bitory Activity at 100 nM (%) [1] [%]	Percent of Cells Positive for ALDEFLUOR ™ at 100 nM [1] [%]	inhibition of ALDH1a3 activity (percentage of ALDEFLUOR-positive cells) ([1]; 100 nM, FIG. 6A)	ALDH isoform specificity, ALDEFLUOR-positive cells [4]
CC(C)Cc1cnccc1C(=O)Nc1cc2c(cc1F)NC(=O)CC2 [Compound 7]	nearly twice as potent as MBE 1.5	< 0.1	0.1 to 0.25				
CCc1cnccc1CNc1cc2c(cc1F)NC(=O)CC2 [Compound 3]		1 to 5	1 to 5	55	34		
CCc1cnccc1C(=O)Nc1ccc2c(c1)CCC(=O)N2 [Compound 9, 3-ethyl-N-(2-oxo-3,4-dihydro-1H-quinolin-6-yl)pyridine-4-carboxamide]						high-affinity compounds for the inhibition of ALDH1a3 activity	
Cc1ccccc1C(=O)Nc1ccc2c(c1)CCC(=O)N2 [Compound 13]		> 5	1 to 5	42	45		
Cc1ccc(C)c(CNc2ccc3c(c2)CCC(=O)N3)c1 [Compound 10]		1 to 5	1 to 5	45	42		
3-ethyl-N-(2-oxo-3,4-dihydro-1H-quinolin-6-yl)pyridine-4-carboxamide [Compound 9]		< 0.1	0.25 to 1	83	13		
O=C1CCc2cc(NCc3ccccc3)ccc2N1 [Compound 14]		> 5	> 5	11	68		
O=C1CCc2cc(NCc3cc[nH]c3)c(F)cc2N1 [Compound 17]		> 5	> 5	2	75		
Cc1ccc(C(=O)Nc2ccc3c(c2)CCC(=O)N3)c(C)c1 [Compound 12]		> 5	> 5	3.3	74		
Cc1cnccc1C(=O)Nc1cc2c(cc1F)NC(=O)CC2 [Compound 15]		> 5	> 5	18	63		
